One data set concerns PsO patients. The experiment in a line: Clinical metrics of PsO patients over course of etanercept (anti-TNFα) therapy. It is filed as in vivo, human. On the set-up: BSA: unit not given here. How it is done: (§1) When compared to contralateral non-lesional skin, the PsO lesion was enriched for HIF1A, IL17RA, and IL17RC (FIGS. 3B and 8H). […] As a complementary analysis, HIF1α protein expression was measured in a cohort of 10 patients treated with etanercept (anti-TNFα) that achieved response (PASI 75 or greater) at 12 weeks (Table 2) (Stinco et al., 2019). […] Collectively, these analyses make a compelling argument for exuberant IL-17A signaling and subsequent HIF1α induction in fueling a pathological epithelial state that is resolved following successful biologic therapy, irrespective of cytokine target.

In a further data set the test system is epidermal HIF1α. Put plainly: Immunofluorescence of PsO lesions before and after etanercept. It is filed as in vivo, human. The following applies: n=10. How it is done: as §1
Human skin immunofluorescence and image analyses. Four-micron paraffin-embedded sections were stained either with hematoxylin and eosin or with Akoya Biosciences® Opal™ multiplex automation kit on a Leica BondRX® autostainer, according to manufacturers' instructions. Semi-automated image acquisition was performed on a Vectra® Polaris multispectral imaging system. After whole slide scanning at 20× the tissue was manually outlined to select fields for spectral unmixing using InForm® version 2.4.11 software from Akoya Biosciences.

The next data set relates to uninflamed skin. The following applies: for epidermal HIF1α levels (K14+HIF1α+ cells): topical on uninflamed skin for six days. How it is done:
To examine if HIF1α is sufficient to promote epithelial pathology in the absence of inflammation, a HIF1α activator, FG-4592, was used (Wu et al., 2016). […] Animal drug treatments. EdU pulse: Mice were injected intraperitoneally with EdU (50 μg/g) (Thermo Scientific) three hours prior to sacrifice. PIM HCl: Pimonidazole Hydrochloride (PIM HCl, hypoxyprobe) was injected intraperitoneally into mice (20 mg/kg) two hours prior to sacrifice. BAY 87-2243: BAY 87-2243 (2 mg/ml, Selleck Chemicals) was first dissolved in DMSO and then diluted in a water-based gel. This gel was topically applied to dorsal skin daily starting two days prior to imiquimod application and continuing in parallel with imiquimod application until analysis. Sodium Oxamate: Sodium oxamate (70 mg/ml, Cayman Chemicals) was first dissolved in H2O and then diluted in a water-based gel. This gel was topically applied to dorsal skin daily starting either on the first or fourth day of imiquimod application and continuing in parallel with imiquimod application until analysis. Syrosingopine: Syrosingopine (10 mg/ml, Cayman Chemicals) was first dissolved in DMSO and then diluted in a water-based gel. […] Sections were blocked and stained with primary and secondary fluorescence-conjugated antibody. […] Pimonidazole Hydrochloride (PIM HCl) was detected by pretreating slides with a mouse-on-mouse immunodetection kit (Vector Laboratories) and then staining with biotin-anti-PIM adduct antibodies as per the manufacturer's guidelines (Hypoxyprobe). Data were analyzed using ImageJ software. Epidermal thickness was quantified by measuring K14^+ thickness with an in-house ImageJ macro. Thickness of keratin 6 (K6) and glucose transporter 1 (Glut1) layer was quantified by measuring K6^+K14^+ and Glut1^+K14^+ thickness with an ImageJ macro. The number of CD3 and EdU positive cells was quantified using ImageJ software and normalized per dermis area and length of epidermis, respectively.

The subject of the next data set is IMQ-treated murine skin. The experiment in a line: Lactate Secretion Assay of ex vivo murine back skin culture. The following applies: 2-DG 50 mM, 24 hours culture. It is filed as cell-based, mouse.
In another data set the test system is PsO lesional human skin. The experiment in a line: Ex vivo culture of human PsO lesional biopsies, bulk RNA-seq. An excerpt: Therefore, an ex vivo “trial in a dish” system was devised to test the effects of HIF1α inhibition on PsO lesional human skin. Lesional biopsies were obtained from 5 PsO patients that were either therapy-naïve or non-responsive to biologic therapy (Table 3). […] Surgical foreskin discards were used as healthy control skin and subject to the same treatment regimens.
Human skin culture. 4 mm full-thickness punch biopsies from lesional psoriatic skin and healthy skin (foreskin) were cut into […], secured with matrigel in 24-well plate and cultured within a maximum of 24-hours after removal from the patient. Each biopsy piece was subjected to different treatment conditions: (1) DMSO vehicle, (2) 10 μM of BAY87-2243, and (3) 500 nM of calcipotriol and 5 μM of betamethasone dipropionate (standard of care). The tissue was cultured in 24-well plates in 500 μl of Dulbecco's Modified Eagle Medium (DMEM) with 10% Fetal Bovine Serum (FBS). After 24 hours of culture, tissues were flash-frozen in liquid nitrogen and stored in −80° C. until RNA extraction. Total RNA was extracted using the RNeasy Fibrous Tissue Mini Kit (Qiagen) per manufacturer's instructions. Libraries were generated with Ribo-Zero Plus rRNA Depletion Kit (Illumina) and sequenced on Novaseq 6000 system with 100-bp paired-end reads.
Low-input bulk-RNA sequencing of human and murine skin. For human studies, skin biopsies were flash-frozen in liquid nitrogen following culture and treatment modalities. […] Libraries were generated with Ribo-Zero Plus rRNA Depletion Kit (Illumina) and sequenced on Novaseq 6000 system with 100-bp paired-end reads. […] Reads were trimmed for adapter sequences using trimmomatic (version 0.36) in paired end mode with the minimal read length option set to 35 base pairs, trailing set to 5, and the sliding window set to 4:15. Sequencing reads were aligned to the mouse genome (mm10/GRCm38) and human genome (hg38) using the splice-aware STAR aligner (Dobin et al, 2013). […]

For data set [1], the system named is imiquimod (IMQ) PsO murine model. The experiment in a line: Imiquimod (IMQ) PsO murine model with topical inhibitor treatment. It is filed as in vivo, mouse. Conditions: for cutaneous Type 17 immunity: interventional treatment after establishment of inflammation at day 3 of IMQ; for Type 17 cytokines (Il17a, Il22, Il23a, Il1b, Tnfa): topical during the course of IMQ treatment; for cutaneous T cell numbers (dermal CD3+ cells) / epithelial (epidermal) thickness: topical from first day, during the course of IMQ treatment. How it is done:
Murine models of psoriatic inflammation. Topical imiquimod application: For imiquimod studies, seven- to eight-week-old mice in telogen (resting phase of hair cycle) were anesthetized with isoflurane prior to hair removal and imiquimod treatment on dorsal skin. 50 mg of imiquimod cream (5%, Perrigo) was applied to shaved dorsal skin, and application was repeated up to six days as previously described (van der Fits et al., 2009). Intradermal rmIL-23 injection: For recombinant murine (rm) IL-23 studies, the ear pinnae in 8-week-old mice were intradermally injected with either rmIL-23 (500 ng in 20 μl of PBS, carrier-free, PeproTech) or PBS control for five days. Animal drug treatments. […] Murine skin immunofluorescence and image analyses. […] Nuclei were stained with DAPI. […] Data were analyzed using ImageJ software.

The mark [2] stands for this setting: Week 2 of etanercept, one line per individual patient.
Setting [3] is: Week 6 of etanercept, one line per individual patient.
The mark [4] stands for this setting: Week 12 of etanercept, one line per individual patient.
Where [5] appears, read: BAY 87-2243 topical concurrent with IMQ, vs vehicle.
The mark [6] stands for this setting: treatment begins on day 3 of IMQ application, up to day 6, vs vehicle.
The mark [7] stands for this setting: vs vehicle, listed as MCT1/MCT4 inhibitor.

Values joined by “and” are separate entries in the source; they are usually repeats but may differ in a detail not shown here. Identical values can stand only once. “Also recorded” adds a separate entry of the source. Like-named read-outs stand apart in the source and are kept apart here.

Description for IMQ-treated murine skin: To examine lactate levels in inflamed skin, full thickness biopsies of IMQ-treated or control skin were cultured for 24 hours, in the presence or absence of glycolysis inhibitor 2DG, and measured lactate in the culture supernatant (FIG. 13A). […] 4 mm full-thickness punch biopsies from IMQ-treated or healthy murine skin were secured with matrigel in 12-well plate and cultured for 24 hours in 400 μl of Dulbecco's Modified Eagle Medium (DMEM) with 10% Fetal Bovine Serum (FBS). For inhibitor studies, cultures were treated with 2-DG (50 mM). At the end of 24 hours, supernatant was collected, centrifuged at 1000 g to pellet debris, and stored in −80C until further use. Lactate was measured using the colorimetric L-Lactate Assay Kit (Abcam).

For etanercept, the BSA in the data set with PsO patients (setting [2]) was 9 and 22 and 15 (2×) and 11 and 12 and 76 and 29 and 19 and 20; in the data set with PsO patients (setting [3]) it was 8 (2×) and 4 and 15 and 11 and 39 and 25 and 13 and 18 and 16; in the data set with PsO patients (setting [4]), 6 and 3 (2×) and 10 and 15 and 27 and 1 and 7 and 18 and 8. Moreover, the “Static Physician's Global Assessment (SPGA)” value with PsO patients (setting [2]) was 3 (6×) and 2 (2×) and 4 (2×); with PsO patients (setting [3]), 3 (3×) and 1 and 2 (6×); with PsO patients (setting [4]), 2 (4×) and 1 (4×) and 3 (2×). The PASI in the data set on PsO patients (Week 2 of etanercept, one line per individual patient (Patient 28-40)) is 9.5 and 3.9 and 8.1 and 9.4 and 14.3 and 31.5 and 17.4 and 18.8 and 10.7 and 10.8; with PsO patients (setting [3]) it was 7.4 and 2.7 and 4.8 and 8.4 and 4.4 and 15 and 6.6 and 12.3 and 8.2 and 4.5; in the data set with PsO patients (setting [4]), 4.5 (2×) and 2.7 and 2.4 and 11.6 and 3.2 and 12 and 0 and 2 and 8.4. The PASI response achieved with PsO patients (cohort of 10 patients, at 12 weeks) is at least 75. In addition, the “cutaneous Type 17 cells” value in the data set on epidermal HIF1α (etanercept responsive patients) was “reduction”. Besides, the “epidermal hyperplasia (epidermal thickness)” value in the data set with epidermal HIF1α (etanercept-responsive patients, post-treated vs pre-treated lesional skin) is reported as “reduced epidermal hyperplasia”. For the same molecule, the “expression of (nuclear) epidermal HIF1α” value with epidermal HIF1α (post-treated vs pre-treated lesional PsO epidermis, responsive patients) is on record as “lower expression; also recorded: reduced”.

For the molecule `Cc1nc(C(=O)NCC(=O)O)c(O)c2ccc(Oc3ccccc3)cc12` [FG-4592], the “epidermal HIF1α levels (K14+HIF1α+ cells)” value in the data set with uninflamed skin is reported as “effectively heightened”; with uninflamed skin (listed as FG-4985), “increased”.

`O=CC[C@@H](O)[C@H](O)[C@H](O)CO` [2DG, 2-Deoxy-D-glucose]: the entries for the “lactate in culture supernatant, IMQ-treated vs control skin” value in the data set with IMQ-treated murine skin and in the data set with IMQ-treated murine skin (listed as 2-DG) were “diminished” and “lost”, respectively.

Regarding `Cc1cc(-c2nc(-c3ccc(OC(F)(F)F)cc3)no2)nn1Cc1ccnc(N2CCN(C3CC3)CC2)c1` [BAY 87-2243], in the data set on PsO lesional human skin (PsO lesional skin, 10 μM, 24 hours, vs vehicle), the “genes associated with glycolytic metabolism, STAT3 activation and epithelial development/differentiation” value is reported as “strikingly downregulated”. Besides, the “number of differentially expressed genes (DEGs) compared to vehicle control” value in the data set with PsO lesional human skin (PsO lesional skin, 24 hours in culture, FDR<0.05, 10 μM BAY87-2243, SoC 500 nM calcipotriol and 5 μM betamethasone dipropionate) is listed as 2921. The “expression of lactate transporters SLC16A1 (MCT1) and SLC16A3 (MCT4)” value with PsO lesional human skin (human PsO lesional skin culture, 24 hours) was “significantly reduced”. The epidermal thickness result in data set [1] (BAY 87-2243 2 mg/ml gel topical daily from two days prior to and concurrent with IMQ, vs vehicle) is given as “diminished; also recorded: significantly reduced”. In addition, the “dermal T cells (CD3+)” value in data set [1] (BAY 87-2243 topical concurrent with IMQ, vs control) was “reduction; also recorded: significantly lower numbers”. In data set [1] (setting [5]), the “inflammatory Keratin 6 expression (K6 thickness)” value is reported as “significantly reduced” and the “proliferation (Ki67)” value is “significantly reduced”. In addition, the epidermal thickness entry in the data set on uninflamed skin (mouse, in vivo) is recorded as “not altered”.

Regarding `NC(=O)C(=O)[O-].[Na+]` [sodium oxamate], in data set [1], the “cutaneous Type 17 immunity” value is “decrease” and the “Type 17 cytokines (Il17a, Il22, Il23a, Il1b, Tnfa)” value is “sufficient to limit”. Also, in data set [1] (vs vehicle), the “cutaneous T cell numbers (dermal CD3+ cells)” value (“cutaneous T cell numbers” for short) is reported as “diminished; also recorded: sufficient to limit” and the “epithelial (epidermal) thickness” value was “diminished; also recorded: sufficient to limit”. The epidermal thickness result in data set [1] (setting [6]) is recorded as “decrease”. Also, the “dermal CD3+ cells” value in data set [1] (treatment begins on day 3 of IMQ application, vs vehicle) is listed as “diminished”.

On to `CCOC(=O)Oc1c(OC)cc(C(=O)O[C@@H]2C[C@@H]3CN4CCc5c([nH]c6cc(OC)ccc56)[C@H]4C[C@@H]3[C@H](C(=O)OC)[C@H]2OC)cc1OC` [syrosingopine], for which, in data set [1], the “cutaneous Type 17 immunity” value is “decrease” and the “Type 17 cytokines (Il17a, Il22, Il23a, Il1b, Tnfa)” value is listed as “sufficient to limit”. In data set [1] (vs vehicle), the “cutaneous T cell numbers” value is recorded as “sufficient to limit” and the “epithelial (epidermal) thickness” value was “sufficient to limit”. In data set [1] (setting [7]), the “cutaneous T cell numbers” value was “diminished” and the “epithelial (epidermal) thickness” value was “diminished”. Also, the epidermal thickness entry in data set [1] (setting [6]) is listed as “decrease”. In addition, the “dermal CD3+ cells” value in data set [1] (treatment begins on day 3 of IMQ application, vs vehicle, listed as MCT1/MCT4 inhibitor) is recorded as “diminished”.

The record behind these values is US20250075218A1, “HIF1A OR GLUT1 INHIBITION IN INFLAMMATORY SKIN DISEASES” (New York University, priority 2023, published 2025).
